Measured values reported in PMC10404681, “Intrinsic catalytic properties of histone H3 lysine-9 methyltransferases preserve monomethylation levels under low S-adenosylmethionine” (The Journal of Biological Chemistry, 2023).

Assays:
EHMT1 catalytic domain = target: T1, EHMT1 catalytic domain (Homo sapiens, UniProt Q9H9B1); experiment: Radiometric EZ-tip methyltransferase assay, steady-state kinetics, EHMT1; format: biochemical, H. sapiens; conditions: SAM varied 0.1–100 μM, EHMT1 25 nM, pH 7.9, 30 °C, n = 3, SD
T1 construct: EHMT1 = 982 to 1266; host or cells: Rosetta E. coli
T1 sequence (Q9H9B1 982-1266): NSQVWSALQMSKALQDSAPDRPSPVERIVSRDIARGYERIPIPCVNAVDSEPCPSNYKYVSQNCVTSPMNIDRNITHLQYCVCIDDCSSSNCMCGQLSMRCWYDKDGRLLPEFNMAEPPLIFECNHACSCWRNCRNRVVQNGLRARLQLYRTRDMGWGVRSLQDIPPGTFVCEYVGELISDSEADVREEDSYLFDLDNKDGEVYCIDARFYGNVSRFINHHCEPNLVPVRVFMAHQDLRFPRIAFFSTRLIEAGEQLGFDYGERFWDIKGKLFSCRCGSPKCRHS
From the text: (§1) The H. sapiens EHMT1 catalytic subunit (Addgene plasmid #51314) and H. sapiens SUV39H2 catalytic subunit (Addgene plasmid #25115) E. coli expression plasmids used in this study were acquired from Addgene, made possible through a gift by Cheryl Arrowsmith. The H. sapiens EHMT2 catalytic subunit E. coli expression plasmid used in this study was provided by the laboratory of Peter W. Lewis at the University of Wisconsin-Madison. All remaining histone methyltransferase expression plasmids were generated for this study and will be made freely available from Addgene.
(§2) Michaelis-Menten saturation curves were generated under steady-state conditions with the non-titrated component concentration being present at ≥5× KM specific to each enzyme. 1 × 10^5 CPM values were provided by [methyl-^3H] SAM in each reaction. Reaction times and enzyme concentrations were optimized for each HMT to ensure substrate turnover remained below 20%. […] Enzyme concentrations are calculated for the monomeric form. Reactions were incubated at 30 °C for 20 min before quenching with TFA for a final concentration of 2% v/v TFA. […] The eluates were added to 2 ml of Ultima Gold LSC Cocktail (Sigma-Aldrich) and counted on a scintillation counter (PerkinElmer). […]

EHMT2 catalytic domain = target: T2, EHMT2 catalytic domain (Homo sapiens, UniProt Q96KQ7); experiment: Radiometric EZ-tip methyltransferase assay, steady-state kinetics, EHMT2; format: biochemical, H. sapiens; conditions: SAM varied 0.1–100 μM, EHMT2 25 nM, pH 7.9, 30 °C, n = 3, SD
T2 construct: EHMT2 = 913 to 1193; made in house; host or cells: Rosetta E. coli (plasmid from the laboratory of Peter W. Lewis)
T2 sequence (Q96KQ7 913-1193): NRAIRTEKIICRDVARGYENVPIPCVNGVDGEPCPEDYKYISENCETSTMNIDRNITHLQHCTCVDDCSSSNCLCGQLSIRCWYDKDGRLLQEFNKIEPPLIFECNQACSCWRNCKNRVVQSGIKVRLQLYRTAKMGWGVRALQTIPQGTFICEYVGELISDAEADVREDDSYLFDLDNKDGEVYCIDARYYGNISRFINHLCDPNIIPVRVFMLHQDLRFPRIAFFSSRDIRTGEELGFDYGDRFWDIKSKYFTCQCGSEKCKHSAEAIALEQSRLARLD
From the text: as §1, §2

SUV39H1 = target: T3, SUV39H1 (Homo sapiens, UniProt O43463); experiment: Radiometric EZ-tip methyltransferase assay, steady-state kinetics, SUV39H1; format: biochemical; conditions: SAM varied 0.1–100 μM, SUV39H1 100 nM, pH 7.9, 30 °C, n = 3, SD
T3 construct: made in house; host or cells: Rosetta E. coli (plasmid generated for this study)
T3 sequence (O43463 1-412): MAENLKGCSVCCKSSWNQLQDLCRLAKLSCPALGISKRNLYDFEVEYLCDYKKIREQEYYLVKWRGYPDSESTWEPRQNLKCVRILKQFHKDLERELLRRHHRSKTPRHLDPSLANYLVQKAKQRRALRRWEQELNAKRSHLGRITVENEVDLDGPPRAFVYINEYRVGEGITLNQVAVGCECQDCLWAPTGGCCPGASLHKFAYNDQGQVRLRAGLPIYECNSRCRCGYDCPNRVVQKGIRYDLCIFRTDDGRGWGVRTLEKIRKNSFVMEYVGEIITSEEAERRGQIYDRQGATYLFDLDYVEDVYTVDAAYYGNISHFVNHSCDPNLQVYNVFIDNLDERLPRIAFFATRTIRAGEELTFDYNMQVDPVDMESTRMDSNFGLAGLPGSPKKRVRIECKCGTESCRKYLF
From the text: as §1, §2

SUV39H2 catalytic domain = target: T4, SUV39H2 catalytic domain (Homo sapiens, UniProt Q9H5I1); experiment: Radiometric EZ-tip methyltransferase assay, steady-state kinetics, SUV39H2; format: biochemical, H. sapiens; conditions: SAM varied 0.1–100 μM, SUV39H2 25 nM, pH 7.9, 30 °C, n = 3, SD
T4 construct: host or cells: Rosetta E. coli
T4 sequence (Q9H5I1 162-410): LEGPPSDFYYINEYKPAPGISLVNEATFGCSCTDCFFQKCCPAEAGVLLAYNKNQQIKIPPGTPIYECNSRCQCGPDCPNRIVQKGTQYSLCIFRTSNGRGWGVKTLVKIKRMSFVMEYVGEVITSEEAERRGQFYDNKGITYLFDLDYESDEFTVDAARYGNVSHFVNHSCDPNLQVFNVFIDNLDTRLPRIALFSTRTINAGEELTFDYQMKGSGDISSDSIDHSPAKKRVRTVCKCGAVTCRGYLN
From the text: as §1, §2

[1] = fixed H3K9me1 peptide H3(1–17) 50 μM
[2] = fixed H3K9un peptide H3(1–17) 50 μM

In the case of `C[S+](CC[C@H](N)C(=O)[O-])C[C@H]1O[C@@H](n2cnc3c(N)ncnc32)[C@H](O)[C@@H]1O` (some centres unmarked) [SAM, S-adenosylmethionine], the “kcat/KM, SAM” value (EHMT1 catalytic domain; [1]) is reported as 5000 M⁻¹ s⁻¹, the “kcat/KM, SAM” value (EHMT1 catalytic domain; [2]) is reported as 16800 M⁻¹ s⁻¹ and the “kcat/KM, SAM” value (EHMT2 catalytic domain; [1]) is reported as 2170 M⁻¹ s⁻¹. For the same molecule, the “kcat/KM, SAM” value (EHMT2 catalytic domain; [2]) was 6670 M⁻¹ s⁻¹, the “kcat/KM, SAM” value (SUV39H1; [1]) was 500 M⁻¹ s⁻¹ and the “kcat/KM, SAM” value (SUV39H1; [2]) was 1670 M⁻¹ s⁻¹. For the same molecule, the “kcat/KM, SAM” value (SUV39H2 catalytic domain; [1]) was 6000 M⁻¹ s⁻¹ and the “kcat/KM, SAM” value (SUV39H2 catalytic domain; [2]) was 14300 M⁻¹ s⁻¹.
